Assays:
Format in all cases: in vivo
[1] = test system: sicklepod (Cassia obtusifolia, CASOB); test: Pre-emerge test, greenhouse herbicide activity screening; conditions: pre-emerge, 14 days after application, rating scale 0-100
How it was run: (§1)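 Fourteen days after spraying, crop and weed injury was graded visually from 0, no effect, to 100, every plant dead. Test substances were dissolved in acetone and applied at 15–1000 g ai/ha with a flat-fan nozzle. Application was either pre-emergence, one day after sowing, or post-emergence at the 2–3 leaf stage.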

[2] = test system: barnyardgrass (Echinochloa crus-galli, ECHCG); test: as above; conditions: pre-emerge, 14 days after application, rating scale 0-100
How it was run: as §1

[3] = test system: green foxtail (Setaria viridis, SETVI); test: as above; conditions: pre-emerge, 14 days after application, rating scale 0-100
How it was run: as §1

[4] = test system: velvetleaf (Abutilon theophrasti, ABUTH); test: as above; conditions: pre-emerge, 14 days after application, rating scale 0-100
How it was run: as §1

[5] = test system: johnsongrass (Sorghum halepense, SORHA); test: as above; conditions: pre-emerge, 14 days after application, rating scale 0-100
How it was run: as §1

[6] = test system: lambsquarters (Chenopodium album, CHEAL); test: as above; conditions: pre-emerge, 14 days after application, rating scale 0-100
How it was run: as §1

[7] = test system: ivyleaf morningglory (Ipomoea hederacea, IPOHE); test: as above; conditions: pre-emerge, 14 days after application, rating scale 0-100
How it was run: as §1

[8] = test system: large crabgrass (Digitaria sanguinalis, DIGSA); test: as above; conditions: pre-emerge, 14 days after application, rating scale 0-100
How it was run: as §1

[9] = test system: field corn (Zea mays L., var. Dekalb 535, CORN); test: Post-emerge test, crop safety; conditions: post-emerge, 14 days after application, rating scale 0-100
How it was run: as §1

[10] = test system: upland rice (Oryza sp., var. Tebonnet, RICE); test: Post-emerge test, crop safety; conditions: post-emerge, 14 days after application, rating scale 0-100
How it was run: as §1

[11] = test system: field corn (Zea mays L., var. Dekalb 535, CORN); test: Pre-emerge test, crop safety; conditions: pre-emerge, 14 days after application, rating scale 0-100
How it was run: as §1

[12] = test system: upland rice (Oryza sp., var. Tebonnet, RICE); test: Pre-emerge test, crop safety; conditions: pre-emerge, 14 days after application, rating scale 0-100
How it was run: as §1

[13] = test system: sicklepod (Cassia obtusifolia, CASOB); test: Post-emerge test, greenhouse herbicide activity screening; conditions: post-emerge, 14 days after application, rating scale 0-100
How it was run: (§2)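 Compounds in acetone were track-sprayed at 15-1000 g ai/ha (187 l/ha) on sandy loam pots: pre-emerge one day after seeding, post-emerge at 2-3 leaf stage with 0.25% v/v non-ionic surfactant. Phytotoxicity was rated 14 days later on a 0 (no damage) to 100 (complete death) scale.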

[14] = test system: barnyardgrass (Echinochloa crus-galli, ECHCG); test: as above; conditions: post-emerge, 14 days after application, rating scale 0-100
How it was run: as §2

[15] = test system: green foxtail (Setaria viridis, SETVI); test: as above; conditions: post-emerge, 14 days after application, rating scale 0-100
How it was run: as §2

[16] = test system: velvetleaf (Abutilon theophrasti, ABUTH); test: as above; conditions: post-emerge, 14 days after application, rating scale 0-100
How it was run: as §2

[17] = test system: redroot pigweed (Amaranthus retroflexus, AMARE); test: as above; conditions: post-emerge, 14 days after application
How it was run: as §2

[18] = test system: ivyleaf morningglory (Ipomoea hederacea, IPOHE); test: as above; conditions: post-emerge, 14 days after application, rating scale 0-100
How it was run: as §2

[19] = test system: large crabgrass (Digitaria sanguinalis, DIGSA); test: as above; conditions: post-emerge, 14 days after application, rating scale 0-100
How it was run: as §2

[20] = test system: redroot pigweed (Amaranthus retroflexus, AMARE); test: Pre-emerge test, greenhouse herbicide activity screening; conditions: pre-emerge, 14 days after application, rating scale 0-100
How it was run: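 Rating: 0–100 visual injury, 14 DAA. Application: acetone, 187 l/ha, 15–1000 g ai/ha, flat-fan track sprayer with nozzle 40–45 cm above soil or canopy. Post-emerge runs used 0.25% v/v surfactant on 2–3 leaf plants.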

[21] = 63 g ai/ha, rating scale 0-100 (0 no damage, 100 complete death)
[22] = 250 g ai/ha, rating scale 0-100

| SMILES | phytotoxicity rating CASOB ([1]; 63 g ai/ha) | phytotoxicity rating CASOB ([1]; 250 g ai/ha) | phytotoxicity rating ECHCG ([2]; 63 g ai/ha) | phytotoxicity rating ECHCG ([2]; 250 g ai/ha) | phytotoxicity rating SETVI ([3]; 63 g ai/ha) | phytotoxicity rating SETVI ([3]; 250 g ai/ha) | phytotoxicity rating ABUTH ([4]; 63 g ai/ha) | phytotoxicity rating ABUTH ([4]; 250 g ai/ha) | phytotoxicity rating SORHA ([5]; 63 g ai/ha) | phytotoxicity rating SORHA ([5]; 250 g ai/ha) | phytotoxicity rating CHEAL ([6]; 63 g ai/ha) | phytotoxicity rating CHEAL ([6]; 250 g ai/ha) | phytotoxicity rating IPOHE ([7]; 63 g ai/ha) | phytotoxicity rating IPOHE ([7]; 250 g ai/ha) | phytotoxicity rating DIGSA ([8]; 63 g ai/ha) | phytotoxicity rating DIGSA ([8]; 250 g ai/ha) | Post-emerge Herbicidal Activity CORN (crop damage rating) ([9]; 63 g ai/ha) | Post-emerge Herbicidal Activity CORN (crop damage rating) ([9]; 250 g ai/ha) | Post-emerge Herbicidal Activity RICE (crop damage rating) ([10]; 63 g ai/ha) | Post-emerge Herbicidal Activity RICE (crop damage rating) ([10]; 250 g ai/ha) | further results |
| --- | --- | --- | --- | --- | --- | --- | --- | --- | --- | --- | --- | --- | --- | --- | --- | --- | --- | --- | --- | --- | --- |
| CCOC(=O)N(C)C(=O)NNc1c(OC)c(Cl)cc(F)c1-n1c(=O)cc(C(F)(F)F)n(C)c1=O [15-9] | 90 | 100 | 99 | 100 | 100 | 100 | 100 | 100 | 100 | 100 | 100 | 100 | 99 | 100 | 90 | 100 | 30 | 70 | 50 | 90 | phytotoxicity rating CORN ([11]; 63 g ai/ha): 85; phytotoxicity rating CORN ([11]; 250 g ai/ha): 98; phytotoxicity rating RICE ([12]; 63 g ai/ha): 95; phytotoxicity rating RICE ([12]; 250 g ai/ha): 100; Post-emerge Herbicidal Activity CASOB (phytotoxicity rating) ([13]; 63 g ai/ha): 10; Post-emerge Herbicidal Activity CASOB (phytotoxicity rating) ([13]; 250 g ai/ha): 60; Post-emerge Herbicidal Activity ECHCG (phytotoxicity rating) ([14]; 63 g ai/ha): 0; Post-emerge Herbicidal Activity ECHCG (phytotoxicity rating) ([14]; 250 g ai/ha): 90; Post-emerge Herbicidal Activity SETVI (phytotoxicity rating) ([15]; 63 g ai/ha): 0; Post-emerge Herbicidal Activity SETVI (phytotoxicity rating) ([15]; 250 g ai/ha): 80; Post-emerge Herbicidal Activity ABUTH (phytotoxicity rating) ([16]; 63 g ai/ha): 80; Post-emerge Herbicidal Activity ABUTH (phytotoxicity rating) ([16]; 250 g ai/ha): 100; Post-emerge Herbicidal Activity AMARE (phytotoxicity rating) [17, 21]: 10; Post-emerge Herbicidal Activity AMARE (phytotoxicity rating) [17, 22]: 95; Post-emerge Herbicidal Activity IPOHE (phytotoxicity rating) ([18]; 63 g ai/ha): 100; Post-emerge Herbicidal Activity IPOHE (phytotoxicity rating) ([18]; 250 g ai/ha): 85; Post-emerge Herbicidal Activity DIGSA (phytotoxicity rating) ([19]; 63 g ai/ha): 0; Post-emerge Herbicidal Activity DIGSA (phytotoxicity rating) ([19]; 250 g ai/ha): 80; phytotoxicity rating AMARE ([20]; 63 g ai/ha): 100; phytotoxicity rating AMARE ([20]; 250 g ai/ha): 100 |
| CCOC(=O)NNc1c(OC)c(Cl)cc(F)c1-n1c(=O)cc(C(F)(F)F)n(C)c1=O [15-6] | 90 | 100 | 99 | 100 | 99 | 100 | 100 | 100 | 100 | 100 | 100 | 100 | 100 | 100 | 100 | 100 | 25 | 80 | 60 | 95 | phytotoxicity rating CORN ([11]; 63 g ai/ha): 95; phytotoxicity rating CORN ([11]; 250 g ai/ha): 100; phytotoxicity rating RICE ([12]; 63 g ai/ha): 98; phytotoxicity rating RICE ([12]; 250 g ai/ha): 100; Post-emerge Herbicidal Activity CASOB (phytotoxicity rating) ([13]; 63 g ai/ha): 30; Post-emerge Herbicidal Activity CASOB (phytotoxicity rating) ([13]; 250 g ai/ha): 70; Post-emerge Herbicidal Activity ECHCG (phytotoxicity rating) ([14]; 63 g ai/ha): 20; Post-emerge Herbicidal Activity ECHCG (phytotoxicity rating) ([14]; 250 g ai/ha): 95; Post-emerge Herbicidal Activity SETVI (phytotoxicity rating) ([15]; 63 g ai/ha): 30; Post-emerge Herbicidal Activity SETVI (phytotoxicity rating) ([15]; 250 g ai/ha): 75; Post-emerge Herbicidal Activity ABUTH (phytotoxicity rating) ([16]; 63 g ai/ha): 100; Post-emerge Herbicidal Activity ABUTH (phytotoxicity rating) ([16]; 250 g ai/ha): 100; Post-emerge Herbicidal Activity AMARE (phytotoxicity rating) [17, 21]: 50; Post-emerge Herbicidal Activity AMARE (phytotoxicity rating) [17, 22]: 85; Post-emerge Herbicidal Activity IPOHE (phytotoxicity rating) ([18]; 63 g ai/ha): 50; Post-emerge Herbicidal Activity IPOHE (phytotoxicity rating) ([18]; 250 g ai/ha): 100; Post-emerge Herbicidal Activity DIGSA (phytotoxicity rating) ([19]; 63 g ai/ha): 0; Post-emerge Herbicidal Activity DIGSA (phytotoxicity rating) ([19]; 250 g ai/ha): 90; phytotoxicity rating AMARE ([20]; 63 g ai/ha): 100; phytotoxicity rating AMARE ([20]; 250 g ai/ha): 100 |

— patent publication US6355799B1, “Substituted benzene compounds, process for their preparation, and herbicidal and defoliant compositions containing them” (ISK Americas Incorporated, priority 1997, dated 2002)
